pEC50: −log10 of the molar value. Like-named read-outs stand apart in the source and are kept apart here.
Legend:
mGPR65 = molecular target: T1, mGPR65 (Mus musculus, UniProt Q61038); experiment: cAMP detection in HeLa expression cell line, mGPR65; format: cell-based; conditions: for pEC50: read-out: mGPR EC50; for Emax: HeLa, read-out: mGPR Max Activity %; for EC50: mGPR EC50 (uM); for cAMP production relative to BRD2813, mGPR65: pH 7.2
T1 construct: expressed in transfected cells; host or cells: HeLa (ATCC CCL-2), lentiviral transduction, pLX317
T1 sequence (Q61038 whole entry): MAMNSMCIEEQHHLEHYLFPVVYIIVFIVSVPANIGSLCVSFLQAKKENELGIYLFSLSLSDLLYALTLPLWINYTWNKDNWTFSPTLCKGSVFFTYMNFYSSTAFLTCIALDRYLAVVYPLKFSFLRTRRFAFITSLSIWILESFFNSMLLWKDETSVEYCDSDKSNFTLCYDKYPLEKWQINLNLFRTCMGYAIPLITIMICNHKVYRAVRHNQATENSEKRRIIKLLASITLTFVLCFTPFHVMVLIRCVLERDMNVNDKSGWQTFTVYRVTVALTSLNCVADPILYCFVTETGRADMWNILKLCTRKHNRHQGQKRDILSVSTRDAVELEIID
Method: (§1) HeLa stable expression cell lines were produced by lentiviral transduction. Briefly, lentiviral plasmids for each GPCR with a C-terminal V5 Tag ([…]) were made in a pLX317 backbone using competent Escherichia coli (New England Biolabs, C3050H). Lenti-X 293 T (Takara, 632810) cells were transfected with the lentiviral plasmids to produce virus. Low-passage HeLa cells (American Type Culture Collection, CCL-2) were then transduced with lentivirus. After 48 hours, HeLa cells were cultured under selection with puromycin (3 μg/ml) and allowed to recover and expand before storing stocks in liquid nitrogen.
(§2) cAMP was measured in cells using the Lance Ultra cAMP Kit. HeLa cells were cultured under puromycin (3 μg/ml) selection. One day before the experiment, cells were seeded in T75 flasks and allowed to adhere overnight. On the day of the experiment, cells were washed twice with Dulbecco’s PBS and lifted using prewarmed 1× versene solution (Gibco, 15040066). Cells were counted in HBSS (Gibco, 14025092) and then resuspended in stimulation buffer prepared according to the manufacturer’s instructions and adjusted to pH 7.2 using 1 M sodium hydroxide. Cells were added to the plate at a density of 1500 cells per well in white opaque 384-well assay ready microplates containing 100 nl of 10 mM compound in DMSO. Cells were stimulated for 30 min at RT, then lysed and incubated with detection reagents for 1 hour in the dark at RT. Plates were read on BMG Labtech PHERAstar FSX (excitation, 337 nm; emission, 620 and 665 nm). Data analysis was performed using GraphPad Prism.

hGPR65 = molecular target: T2, hGPR65 (Homo sapiens, UniProt Q8IYL9); experiment: cAMP detection in HeLa expression cell line, hGPR65; format: cell-based; conditions: for Emax: HeLa, read-out: hGPR Max Activity %; for EC50: hGPR EC50 (uM); for cAMP production relative to BRD2813, hGPR65: pH 7.2
T2 construct: expressed in transfected cells; host or cells: HeLa (ATCC CCL-2), lentiviral transduction, pLX317
T2 sequence (Q8IYL9 whole entry): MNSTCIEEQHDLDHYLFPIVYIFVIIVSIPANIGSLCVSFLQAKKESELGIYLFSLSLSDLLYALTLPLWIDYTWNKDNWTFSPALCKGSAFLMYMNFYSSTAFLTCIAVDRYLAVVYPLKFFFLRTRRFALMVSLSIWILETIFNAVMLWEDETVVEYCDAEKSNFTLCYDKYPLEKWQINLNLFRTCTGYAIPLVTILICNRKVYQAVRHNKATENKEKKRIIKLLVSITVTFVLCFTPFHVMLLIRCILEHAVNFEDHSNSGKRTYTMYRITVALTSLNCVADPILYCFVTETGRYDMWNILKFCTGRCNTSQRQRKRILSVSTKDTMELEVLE
Method: as §1, §2

[1] = tested on: GFP-expressing HeLa cells; experiment: cAMP detection in HeLa expression cell line, GFP control; format: cell-based, human; conditions: Homo sapiens, HeLa, NA = no activity; for Emax: relative to 100uM forskolin (100%) and DMSO (0%), read-out: GFP Max Activity %
Method: as §1, §2

[2] = 1st mGPR column pair, NA = no activity
[3] = 2nd mGPR column pair, NA = no activity
[4] = 2nd mGPR column pair, relative to 100uM forskolin (100%) and DMSO (0%), NA = no activity
[5] = relative to 100uM forskolin (100%) and DMSO (0%), NA = no activity
[6] = 1st hGPR column pair, NA = no activity, read-out: hGPR EC50
[7] = 2nd hGPR column pair, NA = no activity, read-out: hGPR EC50
[8] = 1st hGPR column pair, relative to 100uM forskolin (100%) and DMSO (0%), NA = no activity
[9] = 2nd hGPR column pair, relative to 100uM forskolin (100%) and DMSO (0%), NA = no activity

| Compound | pEC50 (mGPR65; [2]) | pEC50 (mGPR65; [3]) | Emax (mGPR65; [4]) [%] | Emax (mGPR65; [5]) [%] | pEC50 (hGPR65; [6]) | pEC50 (hGPR65; [7]) | Emax (hGPR65; [8]) [%] | Emax (hGPR65; [9]) [%] | pEC50 ([1]; 1st GFP column pair) | Emax ([1]; 1st GFP column pair) [%] | pEC50 ([1]; 2nd GFP column pair) | Emax ([1]; 2nd GFP column pair) [%] | further results |
| --- | --- | --- | --- | --- | --- | --- | --- | --- | --- | --- | --- | --- | --- |
| CC(C)OCc1ccc(-c2cc(O)n3ncc(C(=O)Nc4ccccc4)c3n2)cc1 [BRD5060] | 5.68 | 5.79 | 48.6 | 64.4 | 5.43 | 4.97 | 94.5 | 109 | 4.33 | 5.52 | 4.11 | 2.12 | – |
| Cc1ccc(NC(=O)c2cnn3c(O)cc(-c4ccc(N5CCN(C)CC5)cc4)nc23)cc1 [BRD7215] | – | – | 48.7 | 57.8 | – | – | 48.2 | 57.7 | – | – | 4.20 | 7.18 | EC50 (mGPR65; [3]): 1.1 µM; EC50 (mGPR65; NA = no activity): 0.161 µM; cAMP production relative to BRD2813, mGPR65 (mGPR65): increasing activity; EC50 (hGPR65; NA = no activity): 2.74 µM; pEC50 (hGPR65; hGPR EC50, NA = no activity): 5.36; cAMP production relative to BRD2813, hGPR65 (hGPR65): decreasing cAMP production |
| Cc1cnc(NC(=O)c2cnn3c(O)cc(-c4ccc(COC(C)C)cc4)nc23)cn1 [BRD5073] | 5.64 | 5.56 | 59.1 | 71 | 5.67 | 5.52 | 73.6 | 65.1 | – | – | 5.45 | 2.17 | – |
| Cc1ccc(NC(=O)c2cnn3c(O)cc(-c4cnc(N5CCN(C)CC5)c(Cl)c4)nc23)cc1 [BRD5069] | – | – | 42.5 | 63.3 | – | – | – | 1.75 | 5.80 | 2.17 | – | – | EC50 (mGPR65; [3]): 5.03 µM; EC50 (mGPR65; NA = no activity): 0.65 µM; pEC50 (hGPR65; hGPR EC50, NA = no activity): 5.21 |
| CNC(=O)c1ccc(-c2cc(O)n3ncc(C(=O)Nc4ccc(C)cc4)c3n2)cc1 [BRD5083] | – | 4.00 | 106 | – | 4.58 | – | 75.2 | – | – | – | 5.20 | 1.9 | – |
| Cc1ccc(NC(=O)c2cnn3c(O)cc(-c4cccc(C)c4)nc23)cc1 [BRD1420] | 6.33 | – | – | 2.06 | 5.43 | – | 22.9 | – | 6.50 | 2.36 | – | – | – |
| CCS(=O)(=O)c1ccc(NC(=O)c2cnn3c(O)cc(-c4ccc(COC)cc4)nc23)cc1 [BRD7157] | 4.97 | 4.84 | 19.6 | 64.9 | – | – | – | – | – | – | 4.78 | 6.57 | pEC50 (mGPR65; 3rd mGPR column pair, NA = no activity): 5.35; mGPR Max Activity (mGPR65; [5]): 44.17%; pEC50 (hGPR65; NA = no activity, read-out: hGPR EC50): 4.57; hGPR Max Activity (hGPR65; [5]): 17.41% |
| COCc1ccc(-c2cc(O)n3ncc(C(=O)Nc4ccccc4)c3n2)cc1 [BRD9876] | – | – | 34.4 | 45.3 | – | – | 81.6 | 79.5 | 5.44 | 1.96 | 4.59 | 3.97 | EC50 (mGPR65; [3]): 4.76 µM; EC50 (mGPR65; NA = no activity): 4.06 µM; cAMP production relative to BRD2813, mGPR65 (mGPR65): decreased potency; EC50 (hGPR65; NA = no activity): 8.06 µM; pEC50 (hGPR65; hGPR EC50, NA = no activity): 4.92; cAMP production relative to BRD2813, hGPR65 (hGPR65): detrimental to potency |
| Cc1ccc(NC(=O)c2cnn3c(O)cc(-c4ccc(N5CCOCC5)cc4)nc23)cc1 [BRD4390] | 6.39 | 5.97 | 26.8 | 26.6 | 6.15 | 6.58 | 73.5 | 76.8 | – | – | 4.93 | 2.2 | – |
| COc1cccc(-c2cc(O)n3ncc(C(=O)Nc4ccc(C)cc4)c3n2)c1 [BRD6202] | 6.42 | 6.35 | 58.8 | 63.3 | 5.89 | 5.76 | 72.3 | 73.6 | 5.50 | 1.48 | 6.71 | 3.9 | – |
| Cc1ccc(NC(=O)c2cnn3c(O)cc(-c4ccc(N5CCOCC5)c(Cl)c4)nc23)cc1 [BRD5062] | 6.34 | 6.55 | 55.1 | 50.8 | 5.97 | 6.07 | 74.5 | 71.6 | 4.61 | 3.17 | 4.94 | 1.01 | – |
| CCCc1cc(-c2cc(O)n3ncc(C(=O)Nc4ccccc4)c3n2)no1 [BRD0124] | 6.61 | 6.82 | 56.2 | 63 | 5.95 | 5.76 | 62.1 | 71.8 | – | – | 4.61 | 2.25 | – |
| COc1cc(-c2cc(O)n3ncc(C(=O)Nc4ccc(C)cc4)c3n2)ccc1F [BRD5066] | 5.94 | 6.11 | 29.4 | 31.3 | 5.83 | 5.73 | 67 | 70.4 | – | – | 5.22 | 1.99 | – |
| Cc1ccc(NC(=O)c2cnn3c(O)cc(-c4ccc(N5CCN(C)CC5)nc4)nc23)cc1 [BRD5070] | 5.87 | 5.67 | 34.4 | 38.5 | 5.88 | 7.16 | 13.4 | 4.57 | 5.50 | 2.48 | 6.38 | 2.13 | – |
| CCCc1cc(-c2cc(O)n3ncc(C(=O)Nc4ccc(C)cc4)c3n2)no1 [BRD8472] | 6.99 | 6.40 | 55.4 | 59.4 | 5.90 | 6.10 | 67.7 | 51.3 | 4.60 | 2.75 | – | – | – |
| Cc1ccc(NC(=O)c2cnn3c(O)cc(-c4ccc(N5CCC(=O)CC5)cc4)nc23)cc1 [BRD8536] | 6.01 | 5.55 | 52.9 | 63.5 | 5.39 | 5.26 | 65.7 | 63.9 | 6.10 | 1.86 | – | – | – |
| CC(C)OCc1ccc(-c2cc(O)n3ncc(C(=O)Nc4cccnc4)c3n2)cc1 [BRD5077] | 5.60 | 5.56 | 62.4 | 70 | 5.26 | 5.08 | 57.8 | 70.1 | – | – | 5.79 | 3.65 | – |
| CCOCc1ccc(-c2cc(O)n3ncc(C(=O)Nc4ccccc4)c3n2)cc1 [BRD5063] | 5.26 | 5.56 | 38 | 52.1 | 5.39 | 5.23 | 76.1 | 66.6 | – | – | 6.72 | 1.85 | – |
| Cc1ccc(NC(=O)c2cnn3c(O)cc(-c4ccc(C(=O)N(C)C)cc4)nc23)cc1 [BRD5084] | 5.53 | 5.79 | 31.2 | 32.1 | 5.70 | 5.91 | 39.1 | 40.2 | 4.94 | 5.15 | 4.47 | 7.64 | – |
| Cc1ccc(NC(=O)c2cnn3c(O)cc(-c4ccc(C(N)=O)cc4)nc23)cc1 [BRD5082] | – | – | – | 4.93 | – | – | 0 | – | 4.41 | 14.2 | 4.75 | 7.17 | EC50 (mGPR65; NA = no activity): 12.3 µM; cAMP production relative to BRD2813, mGPR65 (mGPR65): eliminated all cAMP activity; cAMP production relative to BRD2813, hGPR65 (hGPR65): eliminated all cAMP activity |
| Cc1ncc(NC(=O)c2cnn3c(O)cc(-c4ccc(COC(C)C)cc4)nc23)cn1 [BRD5072] | 5.32 | 5.30 | 49 | 51.1 | 5.09 | 5.16 | 59.1 | 48.2 | 5.16 | 3.5 | 6.43 | 1.42 | – |

From article PMC11259170, “Small-molecule probe for IBD risk variant GPR65 I231L alters cytokine signaling networks through positive allosteric modulation” (Science Advances, 2024)
